Results from paper PMC9088798, “An Approach to Derive Functional Peptide Inhibitors of Transcription Factor Activity” (JACS Au, 2022).

What was measured:
cJun/TRE DNA interaction = target: T1, cJun/TRE DNA interaction (Homo sapiens, UniProt P05412); assay: CD TRE DNA peak shift, antagonism of cJun/TRE DNA interaction; type: biochemical; conditions: cJun 20 μM, TRE DNA 5 μM, DNA peak ~281 nm, Hill equation; three independent experiments, one SD; pH 7.4
T1 construct: The human cJun bZIP domain spans from Arg252 to Leu308; His-SUMO (N, cleaved yes); AS cap (two residues Ala-Ser) (N); GAP cap (three residues Gly-Ala-Pro) (C); made in house; host or cells: E. coli (pET21-His-SUMO plasmid)
Experimental: The binding of cJun to TRE DNA can be observed by monitoring a DNA absorbance peak in the CD spectrum centered at ∼281 nm.[44] […] The addition of cJun (20 μM) to TRE DNA (5 μM) decreases this DNA peak by 55% as the cJun engages its target TRE site and alters the DNA structure (Figure 6A). Subsequent titration of HingeW into this bound cJun/TRE DNA mixture reverses the peak shift, with the peak increasing as DNA is released.
Figure 6 HingeW antagonizes cJun/TRE DNA interaction more effectively than A-FosW. (A) CD spectra showing a shift in the TRE DNA peak at ∼281 nm upon addition of cJun, which is reversed by the titration of HingeW into the sample, as HingeW sequesters the cJun in a nonfunctional heterodimer. […] EMSA showing the (C) unbound TRE DNA band shift upon addition of cJun and the subsequent restoration of the unbound DNA band intensity upon titration of either (D) HingeW or (E) A-FosW. (F). For both CD and EMSA, data was averaged from three independent experiments and the plotted error bars indicate one standard deviation. […]
µM) alongside ampicillin, kanamycin and chloramphenicol to maintain the required plasmids, and IPTG (1 mM) to induce protein expression. The library transformants were […]
(§1) increased to the optimum 4 µM in subsequent passages. […] This allows the occurrence of library members to be monitored as winner sequences are selected for. […]

cJun bZIP = assay: CD spectroscopy, binding to cJun bZIP (helicity of heterodimer); set-up: species or system human; conditions: 20 °C, total peptide 10 μM equimolar, pH 7.4
From the text: Experiments were next undertaken to compare the binding of A-FosW and TBS-optimized HingeW to the cJun bZIP. CD spectroscopy was utilized to measure the global secondary structure of homo- and heterodimeric peptide samples, providing information on global α-helicity and thermal denaturation temperatures (Tm). The HingeW/cJun spectrum was 82% higher in α-helical content relative to the average of the two-component spectra (Figure 5A). […] This occurs as the total peptide concentration of the sample is kept constant (10 μM), meaning that the concentration of each component is halved upon mixing. If a sample component structure is unchanged upon mixing (i.e., no binding occurs), the CD signal for each component will average. The same, though smaller, trend was observed from the A-FosW/cJun spectra, where the α-helicity was 39% greater than the average (Figure 5B). This increased α-helical gain upon binding of HingeW/cJun implies a higher affinity interaction. Of note is that HingeW in isolation is 12.9% less helical relative to A-FosW. The AGADIR helical propensity calculator was used to calculate predicted helicity scores of 14.5 and 13.2 for A-FosW and HingeW, respectively.[42] […]
as §1

T1 sequence (P05412 252-308): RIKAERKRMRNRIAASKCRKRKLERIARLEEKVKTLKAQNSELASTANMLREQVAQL

IC50 (cJun/TRE DNA interaction): 16 ± 0.4 µM
increase in α-helical content of heterodimer with cJun relative to average of component spectra (cJun bZIP; 150 mM potassium phosphate, 150 mM KF, 5 mM TCEP): 39%
Fraction helicity of heterodimer with cJun (cJun bZIP): 38.7%
Sequence: LEQRAEELARENEELEKEAEELEQELDELQAEIEQLEERNYALRKEIEDLQKQLEKL [A-FosW, N-terminal AS and C-terminal GAP caps, 6xHis-tagged]
